The values that follow come from patent US4362746A (priority 1981, dated 1982).

The nature of data set [1]: in vivo. Particulars: mouse.
A further data set is described as follows: Acute toxicity in mice. Particulars: mouse, in vivo.
The subject of data set [2] is mice. Nature of the data set: Acute toxicity in mice. Particulars: after 24 hours.
Another data set is described as follows: in vitro. Particulars: human, g-2 cells.
Data set [3] has as its system Influenza A/Swine/1976/31. Nature of the data set: microbe, parasite or virus in culture. It is filed as cell-based. Particulars: in Sus scrofa.
The next data set has as its system Influenza A2 /MTL/68. Nature of the data set: In vitro anti-myxovirus assay, inhibition of hemadsorption, Influenza A2/MTL/68 in G-2 cells. It counts as cell-based, Influenza A2 /Montreal/68. Particulars: for inhibition at 5 µg/mL: 5 ug/ml; for inhibition at 10 µg/mL: 10 ug/ml; for inhibition at 25 µg/mL: 25 ug/ml; for inhibition at 33 µg/mL: 33 ug/ml; for inhibition at 50 µg/mL: 50 ug/ml.

Data set [4] in a line: Subacute toxicity in mice. Particulars: mouse, in vivo.
The test system of data set [5] is mice. Nature of the data set: Subacute toxicity in mice. Particulars: for Subacute LD0 (non-lethal dose): once a day, seventeenth day of treatment.
In another data set the test system is Influenza B/MASS/66. Nature of the data set: In vitro anti-myxovirus assay, inhibition of hemadsorption, Influenza B/MASS/66 in G-2 cells. It counts as cell-based. Particulars: Influenza B virus, 56 TCID50. As for the experimental part: In preparing the compounds for testing, they were handled aseptically throughout. The compounds were dissolved in a minimum amount of a suitable solvent and the final dilutions were made up to the required volume in a complete culture medium used in assay and in concentration not exceeding the predetermined maximum non-toxic levels.
The antiviral assays were done in tissue cultures infected with an appropriate dose of an influenza virus.
The cell culture used in all in vitro anti-myxovirus assays was an established cell line of the human conjunctiva (G-2 cells). The cytotoxic studies of each of the compounds were performed prior to testing for antiviral activity to determine level of response of the cells to the potentially toxic action of the compounds.
For the antiviral assays the cells were grown in triplicates per dilution of compound in test tubes in a suitable medium. Immediately before use the initial medium was replaced with the one containing the test compound in an appropriate concentration. After virus was added at approximately 10 and 100 TCID50 dose levels the infected culture was incubated at 32° C. for a number of days. The medium was then drained, red blood cells added and after washing, the extent of hemadsorption evaluated. The percentage of inhibition of adsorption (a measure of antiviral activity) was then calculated. In all anti-myxovirus testing in vitro, as well as in vivo, amantadine (a known antiviral agent) was used as a reference standard.

The subject of a further data set is G-2 cells. Particulars: human, g-2 cells.
Data set [6] in a line: in vivo. Particulars: mouse. This is another data set of the same source.
Data set [7] has as its system influenza virus A2 /Aichi/2/68. It counts as in vivo, mice (Charles River, random bred white, female). Particulars: for Mean Survival Time / Survival % / Survival N (surviving animals / total infected) / Mean Survival Time Increase: 16 days; for Mean Survival Time Increase: vs virus only.
For data set [8] the following is noted: U.S. Pat. Nos. 3,932,512 and 4,046,811; cited from earlier work.
Where [9] appears, read: Exp. 2, virus dose 2.0 LD50, 300 mg/kg/day IP.
The mark [10] stands for this setting: Exp. 3, virus dose 2.6 LD50, 200 mg/kg/day IP.
Where [11] appears, read: Exp. 4, virus dose 3.0 LD50, 200 mg/kg/day IP.

Structures are written as SMILES. Structures can show the parent of a compound that is named as a salt. Where two headings read alike, the source gives them in different places.

Regarding `CN(C)C[C@H]1[C@@H](N)[C@@H]2C[C@H]1c1ccccc12` (relative stereo) [Compound B, endo-3-dimethylaminomethyl-endo-2-amino-1,2,3,4-tetrahydro-1,4-methanonaphthalene dihydrochloride], the NOAEL (as a rule, the highest tested level that showed no adverse finding) at 408 h was found to be 400 mg/kg/day in “in vivo [1]” (ip) and 750 mg/kg/day in the data set “in vivo [1]” (po). The figures for the LD50 at 24 h in the data set “Acute toxicity in mice” (ip) and in the data set “Acute toxicity in mice” (po) were 550 mg/kg and over 750 mg/kg, respectively. For the same compound, the “Acute LD0 (non-lethal dose)” value with mice [2] (IP) is on record as 450 mg/kg/day; in the data set with mice [2] (PO), over 750 mg/kg/day. For the same compound, the MNTC in “in vitro” (Cytotoxicity CTD0, maximal non-toxic concentration) turned out to be 50 µg/mL. For the same compound, in the data set “in vitro” (Cytotoxicity CTD50), the midpoint of cytotoxicity, the CC50, lay at 100 µg/mL. For the same compound, the inhibition (commonly the relative decrease from the control value, in per cent) at 5 µg/mL was determined as 0% in data set [3] (316 TCID50, 5 ug/ml); 0% in the data set with Influenza A2 /MTL/68 (32 TCID50); 0% in the data set on Influenza A2 /MTL/68 (316 TCID50). For the same compound, the inhibition at 10 µg/mL was 70% in [3] (316 TCID50, 10 ug/ml); 30% in the data set on Influenza A2 /MTL/68 (32 TCID50); 0% in the data set with Influenza A2 /MTL/68 (316 TCID50); 0% in the data set on Influenza B/MASS/66 (10 ug/ml). For the same compound, the inhibition at 25 µg/mL in [3] (316 TCID50, 25 ug/ml) worked out at 92%; with Influenza A2 /MTL/68 (32 TCID50) it was 78%; with Influenza A2 /MTL/68 (316 TCID50), 70%; with Influenza B/MASS/66 (25 ug/ml), 17%. Moreover, the inhibition at 33 µg/mL in data set [3] (316 TCID50, 33 ug/ml) amounted to 100%; in the data set on Influenza A2 /MTL/68 (32 TCID50), 93%; in the data set on Influenza A2 /MTL/68 (316 TCID50), 76%; in the data set with Influenza B/MASS/66 (33 ug/ml), 43%. Further, the inhibition at 50 µg/mL came to 93% with Influenza A2 /MTL/68 (32 TCID50), 83% with Influenza A2 /MTL/68 (316 TCID50) and 73% with Influenza B/MASS/66 (50 ug/ml). The LD50 (commonly the dose expected to kill half of the subjects tested) at 408 h in data set [4] (ip) was 500 mg/kg; in [4] (po), over 750 mg/kg. In addition, the “Subacute LD0 (non-lethal dose)” value in the data set with mice [5] (IP) is recorded as 450 mg/kg/day; in the data set with mice [5] (PO), over 750 mg/kg/day. Besides, the “clinical sign of toxicity (weight)” value in the data set on mice [5] (PO, subacute, at TD0 750) is “Slight loss of weight”. Further, the “Cytotoxicity CTD50” value with G-2 cells is over 100 µg/mL. Moreover, the NOAEL at 24 h in the data set “in vivo [6]” (ip) and in the data set “in vivo [6]” (po) was over 750 mg/kg/day in each case. Moreover, the “Mean Survival Time” value worked out at 14.5 days in data set [7] (setting [9]), 13.2 days in [7] (setting [10]) and 13.5 days in data set [7] (setting [11]). The Survival % in data set [7] (setting [9]) is reported as 70%; in data set [7] (setting [10]) it was 40%; in data set [7] (setting [11]), 45%. Further, the “Survival N (surviving animals / total infected)” value in [7] (setting [9]) is listed as 14/20; in [7] (setting [10]), 8/20; in [7] (setting [11]) it was 9/20. For the same compound, the “Mean Survival Time Increase” value in data set [7] (setting [9]) is reported as “+2.1 Days”; in data set [7] (setting [10]) it was “+2.1 Days”; in data set [7] (setting [11]), “+2.2 Days”. Besides, the “antiviral effect against influenza virus infection” value in data set [7] (administered intraperitoneally, […]) was “significant antiviral effect”.
`N[C@@H]1C[C@H]2C[C@@H]1c1ccccc12` (relative stereo) [1,2,3,4-tetrahydro-1,4-methanonaphthalen-endo-2-amine]: the antiviral activity result in data set [8] is “exhibited antiviral activity”.
Regarding `N[C@H]1C[C@H]2C[C@@H]1c1ccccc12` (relative stereo) [isomer with the amino substituent taking up the exo configuration], the antiviral activity entry in data set [8] is “showed no antiviral activity”.
